Assay results reported in patent US20230144824A1, “1H-PYRAZOLO[4,3-d]PYRIMIDINE COMPOUNDS AS TOLL-LIKE RECEPTOR 7 (TLR7) AGONISTS” (BRISTOL-MYERS SQUIBB COMPANY, priority 2020, published 2023).

Key:
human TLR7 = target: T1, human TLR7 (Homo sapiens, UniProt Q9NYK1); assay: Human TLR7 agonist activity assay (HEK-Blue TLR7 SEAP reporter); format: cell-based; conditions: HEK-Blue TLR7 cells, 18 h treatment, average where assay performed multiple times, read-out: hTLR7 Agonism EC50
T1 construct: host or cells: HEK-Blue TLR7 cells (engineered human embryonic kidney cells)
T1 sequence (Q9NYK1 27-1049): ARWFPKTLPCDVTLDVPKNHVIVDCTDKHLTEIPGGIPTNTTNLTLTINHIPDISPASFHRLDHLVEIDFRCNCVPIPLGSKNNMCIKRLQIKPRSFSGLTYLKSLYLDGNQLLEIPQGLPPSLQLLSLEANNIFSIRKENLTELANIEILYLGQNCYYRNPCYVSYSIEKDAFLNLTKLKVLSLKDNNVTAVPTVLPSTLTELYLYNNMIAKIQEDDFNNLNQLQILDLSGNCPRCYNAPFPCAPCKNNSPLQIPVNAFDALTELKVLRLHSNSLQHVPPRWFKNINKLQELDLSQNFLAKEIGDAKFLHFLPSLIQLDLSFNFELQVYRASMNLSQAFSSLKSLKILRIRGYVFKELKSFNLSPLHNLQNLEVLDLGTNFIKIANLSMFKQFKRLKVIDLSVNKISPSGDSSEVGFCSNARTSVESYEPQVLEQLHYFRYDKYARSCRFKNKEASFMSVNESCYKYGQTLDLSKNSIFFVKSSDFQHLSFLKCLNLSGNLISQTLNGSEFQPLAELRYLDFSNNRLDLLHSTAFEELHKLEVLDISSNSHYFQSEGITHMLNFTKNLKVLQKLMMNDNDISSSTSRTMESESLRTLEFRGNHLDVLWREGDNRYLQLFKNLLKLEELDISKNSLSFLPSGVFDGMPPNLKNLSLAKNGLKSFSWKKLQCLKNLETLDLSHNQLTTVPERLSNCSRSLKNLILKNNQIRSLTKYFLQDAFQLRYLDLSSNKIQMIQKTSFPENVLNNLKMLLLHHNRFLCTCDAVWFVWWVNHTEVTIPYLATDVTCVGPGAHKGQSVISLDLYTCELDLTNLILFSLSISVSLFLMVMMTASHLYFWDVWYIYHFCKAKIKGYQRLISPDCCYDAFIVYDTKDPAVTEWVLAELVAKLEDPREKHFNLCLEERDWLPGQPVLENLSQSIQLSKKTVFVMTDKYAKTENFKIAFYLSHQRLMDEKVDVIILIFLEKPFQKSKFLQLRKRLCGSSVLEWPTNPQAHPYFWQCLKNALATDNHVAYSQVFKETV
Outline: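 HEK-Blue TLR7 cells (15,000/well) treated with compound for 18 h at 37 °C, 5% CO2. Secreted SEAP measured with Quanti-Blue, 30 min, OD 620 nm. EC50 taken as concentration giving half-maximal response between baseline and maximum.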

CD69 = assay: Induction of CD69 in human whole blood; format: cell-based; conditions: Homo sapiens, 17 h, 100% set to 1 uM of resiquimod, average where assay performed multiple times, read-out: hWB CD69 EC50
Outline: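 Heparinized human whole blood treated with TLR7 agonist at final 1 uM and incubated 17 h at 37° C. CD69 surface staining alongside CD14 and CD19, then fix/lysis and flow cytometry on iQuePlus. Curves fitted with 1 uM resiquimod set as 100%.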

EC50 (human TLR7) [nM]	EC50 (CD69) [nM]	SMILES
131	81	CCCCNc1nc(N)nc2cnn(Cc3cc(F)c(N4CCN(C(=O)CNCC(C)(C)O)CC4)cc3OC)c12 [Compound 196, 1-[4-(4-{[5-amino-7-(butylamino)-1H-pyrazolo[4,3-d]pyrimidin-1-yl]methyl}-2-fluoro-5-methoxyphenyl)piperazin-1-yl]-2-[(2-hydroxy-2-methylpropyl)amino]ethan-1-one]
320	1000	CCCCNc1nc(N)nc2cnn(Cc3cc(F)c(N4CCN(C(=O)CNCCS(C)(=O)=O)CC4)cc3OC)c12 [Compound 197, 1-[4-(4-{[5-amino-7-(butylamino)-1H-pyrazolo[4,3-d]pyrimidin-1-yl]methyl}-2-fluoro-5-methoxyphenyl)piperazin-1-yl]-2-[(2-methanesulfonylethyl)amino]ethan-1-one]
48.2	50.9	CCCCNc1nc(N)nc2cnn(Cc3cc(F)c(N4CCN(C(=O)CN5CCC[C@H]5CO)CC4)cc3OC)c12 [Compound 198, 1-[4-(4-{[5-amino-7-(butylamino)-1H-pyrazolo[4,3-d]pyrimidin-1-yl]methyl}-2-fluoro-5-methoxyphenyl)piperazin-1-yl]-2-[(2S)-2-(hydroxymethyl)pyrrolidin-1-yl]ethan-1-one]
339	1000	CCCCNc1nc(N)nc2cnn(Cc3cc(F)c(N4CCN(C(=O)CN5CC(O)C5)CC4)cc3OC)c12 [Compound 199, 1-[4-(4-{[5-amino-7-(butylamino)-1H-pyrazolo[4,3-d]pyrimidin-1-yl]methyl}-2-fluoro-5-methoxyphenyl)piperazin-1-yl]-2-(3-hydroxyazetidin-1-yl)ethan-1-one]
